From publication PMC10165932, “Tripeptides conjugated with thiosemicarbazones: new inhibitors of tyrosinase for cosmeceutical use” (Journal of Enzyme Inhibition and Medicinal Chemistry, 2023)
Several values for one entry are separate records, joined by “and”; a condition that tells them apart may be missing. Equal entries are not always repeated. Where two headings read alike, the source gives them in different places. Where a SMILES comes first, the peptide text is derived from it.

Key:
[1] = system: B16F0 murine melanoma cell line; experiment: cells; format: cell-based; settings: 48 h
Protocol: B16F0 murine melanoma cell line was cultured in DMEM (Biowest, Nuaillé, France) medium supplemented with 100 U/ml streptomycin (Sigma-Aldrich, Taufkirchen, Germany), 100 U/ml penicillin (Sigma-Aldrich, Taufkirchen, Germany), and 10% foetal bovine serum (Sigma-Aldrich, Taufkirchen, Germany). Cells were maintained in 5% CO2 at 37 °C. Cells viability was estimated by MTT colorimetric assay as described by Bellei et al.[51] B16 cells were seeded into 96-well plate (4 × 10^3 cells/well) and incubated in the presence of the investigated compounds at various concentrations (1000, 400, 100, 40, 10, 1, 0.1 μM) for 48 h. Kojic acid and DMSO were used as controls. MTT was added into wells (0.625 mg/ml, Sigma-Aldrich, Taufkirchen, Germany) for the last 4 h. Then lysing buffer was added to dissolve insoluble formazan. The absorbance was measured (λ = 570 nm) using Thermo Lab Multiscan RC microplate reader.

[2] = system: B16F0 murine melanoma cell line; experiment: cells; format: cell-based; settings: for % Of melanogenesis inhibition at a specific inhibitor concentration / inhibition at 10 µM / inhibition at 40 µM: B16F0, 48 h; for inhibition at 10 µM / inhibition at 40 µM: read-out: % Of melanogenesis inhibition at a specific inhibitor concentration
Protocol: The effect of the synthetic compounds on melanogenesis inhibition was performed in B16F0 murine melanoma cell line. The mouse model of human skin is often employed in skin biology and cancer research due to numerous similarities.[62] B16F0 murine melanoma cell line shares most of the melanogenesis with human melanocytes. Therefore, it is the proper model for screening the effect of potential inhibitors on melanogenesis.[63]

[3] = target: T1, mushroom tyrosinase (Agaricus bisporus, UniProt C7FF04); experiment: Tyrosinase inhibition assay (diphenolase activity, L-DOPA substrate); format: biochemical; settings: for IC50 / tyrosinase inhibition (in words): diphenolase activity; for IC50: L-DOPA 5 mM; for tyrosinase inhibition (in words): tested range of concentrations
Protocol: The tyrosinase enzymatic assay was performed according to the protocol described previously in our papers[46–48] using L-3,4-dihydroxyphenylalanine (L-DOPA) (Sigma-Aldrich, Germany) as a substrate. L-DOPA was dissolved in an aqueous 0.15 mM phosphoric(V) acid solution, preventing its oxidation. […] Tyrosinase powder (Sigma-Aldrich, Germany) was dissolved in the assay buffer to obtain a concentration of 50,000 units/mL. This stock solution was divided into 50 μL aliquots, each one containing 2500 units of tyrosinase, and stored at −80 °C. Shortly before the assay, one of the aliquots was reconstituted in the assay buffer up to 3000 μL. First, 10 μL of the diluted enzyme solution was preincubated with samples at various concentrations for 5 min at 25 °C. Afterwards, 20 μL of L-DOPA solution was added.
The screening of tyrosinase activity of the synthetic compounds was performed according to the procedure previously reported in our articles.[46–48] As reported in most of the research dealing with tyrosinase inhibition, we employed mushroom tyrosinase, due to the lack of information and the limited availability of human tyrosinase.[59]^,[60] All the compounds were evaluated at different concentrations after incubation with tyrosinase in solution for 5 min at room temperature. Afterwards, the substrate L-DOPA was added to start the enzymatic reaction. The absorbance provided by the colourful derivative, dopachrome, was measured every 5 s for 10 min in order to monitor the progress of the reaction over time. […] (1) % of ENZactivity=Sampleslope/ECslope×100

[4] = target: T1, mushroom tyrosinase; settings: cited from earlier work; for tyrosinase inhibition (in words): previous paper
[5] = system: B16F0 murine melanoma cell line; set-up: method as in PMID 30248509; settings: previous paper; read-out: IC50 value for melanogenesis; cited from earlier work
[6] = n = 3, read-out: The maximum percentage of inhibition reached for poor inhibitors
[7] = Mus musculus, B16F0, MTT, n = 3, read-out: IC50 of cell proliferation
[8] = Mus musculus, B16F0, n = 3, read-out: IC50 of melanin production

T1 sequence (C7FF04 1-392): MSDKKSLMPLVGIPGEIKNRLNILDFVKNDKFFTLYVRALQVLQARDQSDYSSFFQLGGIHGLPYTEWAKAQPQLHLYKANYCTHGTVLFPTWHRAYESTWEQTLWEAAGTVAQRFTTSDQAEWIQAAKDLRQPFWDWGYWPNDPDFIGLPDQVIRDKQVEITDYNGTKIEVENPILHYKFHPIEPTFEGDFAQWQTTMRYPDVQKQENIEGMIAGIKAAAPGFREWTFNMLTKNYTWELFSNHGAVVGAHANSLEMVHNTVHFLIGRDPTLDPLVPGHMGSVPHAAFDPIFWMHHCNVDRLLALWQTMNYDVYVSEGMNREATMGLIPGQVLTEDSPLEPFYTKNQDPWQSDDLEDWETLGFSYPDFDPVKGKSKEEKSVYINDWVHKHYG

Row | Compound | IC50 [1] [µM] | % Of melanogenesis inhibition at a specific inhibitor concentration ([2]; 10 µM) [%] | % Of melanogenesis inhibition at a specific inhibitor concentration ([2]; 40 µM) [%] | IC50 ([2]; 24 h) [µM] | inhibition at 250 µM [3, 6] [%] | IC50 ([3]; n = 3) | other results
1 | NC(=S)N/N=C/c1ccc(C(=O)N[C@@H](Cc2ccccc2)C(=O)N[C@@H](Cc2ccccc2)C(=O)N[C@@H](Cc2ccc(O)cc2)C(=O)O)cc1 [Compound 7, TSC1-FFY-OH] | 72.8 | 1 | 10 | 138 | 77 | > 150 µM | –
2 | NC(=S)N/N=C/c1ccc(C(=O)N[C@@H](Cc2ccccc2)C(=O)N[C@@H](Cc2c[nH]c3ccccc23)C(=O)N[C@@H](Cc2ccc(O)cc2)C(=O)O)cc1 [Compound 9, TSC1-FWY-OH] | 77.1 | 0 | 11 | 151 | – | 6.5 µM and 6.66 µM | –
3 | C/C(=N\NC(N)=S)c1ccc(C(=O)N[C@@H](Cc2ccccc2)C(=O)N[C@@H](Cc2c[nH]c3ccccc23)C(=O)N[C@@H](Cc2ccc(O)cc2)C(=O)O)cc1 [Compound 15, TSC3-FWY-OH] | 67.5 | 5 | 20 | 67.1 | – | 25.1 ± 2.5 µM | –
4 | NC(=S)NN=C(c1ccccc1)c1ccccc1 [thiosemicarbazone of benzophenone] | – | – | – | – | – | – | tyrosinase inhibition (in words) [4]: efficient tyrosinase inhibitor; IC50 [5]: < 2 µM
5 | C/C(=N\NC(N)=S)c1ccc(C(=O)N[C@@H](Cc2ccccc2)C(=O)N[C@@H](Cc2ccc(O)cc2)C(=O)N[C@@H](Cc2ccc(O)cc2)C(=O)O)cc1 [Compound 14, TSC3-FYY-OH] | 83.7 | 0 | 4 | 145 | – | 26.1 ± 9 µM | –
6 | CC(C(=O)N[C@@H](Cc1ccccc1)C(=O)N[C@@H](Cc1c[nH]c2ccccc12)C(=O)N[C@@H](Cc1ccc(O)cc1)C(=O)O)c1cccc(C(=NNC(N)=S)c2ccccc2)c1 (mixture of isomers) [Compound 12, TSC2-FWY-OH] | 63.2 | 0 | 3 | 89.9 | 50 | – | –
7 | CC(C(=O)O)c1cccc(/C(=N\NC(N)=S)c2ccccc2)c1 (centres unmarked) [Compound 2, thiosemicarbazone of ketoprofen] | – | – | – | – | – | > 150 µM | IC50 [1, 7]: 71.5 µM; inhibition at 10 µM ([2]; Mus musculus, 10 µM): 28%; inhibition at 40 µM ([2]; Mus musculus, 40 µM): 77%; IC50 [2, 8]: 19.8 µM; inhibition at 150 µM ([3]; at 150 μM, n = 3, read-out: The maximum percentage of inhibition reached for poor inhibitors): 34%; tyrosinase inhibition (in words) [3]: no significant inhibition towards tyrosinase
8 | C/C(=N\NC(N)=S)c1ccc(C(=O)N[C@@H](Cc2ccccc2)C(=O)N[C@@H](Cc2ccccc2)C(=O)N[C@@H](Cc2ccc(O)cc2)C(=O)O)cc1 [Compound 13, TSC3-FFY-OH] | 49.8 | 0 | 3 | 162 | 62 | > 150 µM | –
9 | CC(=O)N[C@@H](Cc1ccccc1)C(=O)N[C@@H](Cc1c[nH]c2ccccc12)C(=O)N[C@@H](Cc1ccc(O)cc1)C(=O)O [Compound 6, Ac-FWY-OH] (Ac-Phe-Trp-Tyr-OH) | 81 | 0 | 4 | 141 | – | – | tyrosinase inhibition (in words) [3]: no significant inhibition was observed in the tested range of concentrations
10 | O=c1cc(CO)occ1O [Kojic acid, reference compound] | – | – | – | – | – | – | IC50 [1, 7]: 162 µM; inhibition at 10 µM ([2]; Mus musculus, 10 µM): 1%; inhibition at 40 µM ([2]; Mus musculus, 40 µM): 12%; IC50 [2, 8]: 121 µM
11 | CC(C(=O)N[C@@H](Cc1ccccc1)C(=O)N[C@@H](Cc1ccc(O)cc1)C(=O)N[C@@H](Cc1ccc(O)cc1)C(=O)O)c1cccc(C(=NNC(N)=S)c2ccccc2)c1 (mixture of isomers) [Compound 11, TSC2-FYY-OH] | 77.2 | 0 | 0 | – | 36 | – | –
12 | CC(=O)N[C@@H](Cc1ccccc1)C(=O)N[C@@H](Cc1ccccc1)C(=O)N[C@@H](Cc1ccc(O)cc1)C(=O)O [Compound 4, Ac-FFY-OH] (Ac-Phe-Phe-Tyr-OH) | 106 | 1 | 3 | 246 | – | – | IC50 ([4]; tyrosinase inhibition, read-out: IC50 found in the literature): 240 µM; tyrosinase inhibition (in words) [3]: no significant inhibition was observed in the tested range of concentrations
13 | CC(=O)N[C@@H](Cc1ccccc1)C(=O)N[C@@H](Cc1ccc(O)cc1)C(=O)N[C@@H](Cc1ccc(O)cc1)C(=O)O [Compound 5, Ac-FYY-OH] (Ac-Phe-Tyr-Tyr-OH) | 96.6 | 0 | 2 | 175 | – | – | tyrosinase inhibition (in words) [3]: no significant inhibition was observed in the tested range of concentrations
14 | CC(C(=O)N[C@@H](Cc1ccccc1)C(=O)N[C@@H](Cc1ccccc1)C(=O)N[C@@H](Cc1ccc(O)cc1)C(=O)O)c1cccc(C(=NNC(N)=S)c2ccccc2)c1 (mixture of isomers) [Compound 10, TSC2-FFY-OH] | 77.4 | 0 | 4 | 146 | 45 | – | –
15 | NC(=S)N/N=C/c1ccc(C(=O)N[C@@H](Cc2ccccc2)C(=O)N[C@@H](Cc2ccc(O)cc2)C(=O)N[C@@H](Cc2ccc(O)cc2)C(=O)O)cc1 [Compound 8, TSC1-FYY-OH] | 99 | 3 | 12 | 158 | – | 6.5 µM and 6.57 µM | –
16 | NC(=S)N/N=C(\Cc1ccccc1)c1ccccc1 [thiosemicarbazone of (E)-2-phenylacetophenone] | – | – | – | – | – | – | tyrosinase inhibition (in words) [4]: did not inhibit tyrosinase at all; IC50 [5]: < 2 µM
